Data reported in patent publication US4194009A, “Aryloxyphenylpropylamines for obtaining a psychotropic effect” (Eli Lilly and Company, priority 1976, dated 1980).
Read-outs that look alike come from different tables or passages of the source.

Key:
[1] = test system: norepinephrine uptake by synaptosomes from rat brain; assay: blockage of norepinephrine uptake by synaptosomes from rat brain; type: biochemical; conditions: Table 1, norepinephrine 0.48 μM
From the text: (§1) This blockade is shown both in vitro with radioactive labelled compounds to determine the amount of monoamine uptake by synaptosomes from rat brain, and in vivo by a variety of methods. Among the physiologically active monoamines whose uptake is blocked by the compounds of this invention are included serotonin, norepinephrine and dopamine (3,4-dihydroxyphenylethylamine). […] Tables 1 and 2 which follow set forth the results of some of the in vitro determinations of the blockage of monoamine uptake by the compounds of this invention. In the tables, column 1 gives the R substituent on the 3-phenylpropylamine and columns 2-4, the concentration in micrograms per ml. that blocks the uptake of a particular amine by 50 percent for the amines--norephinephrine, serotonin, and dopamine. At the head of each column is given the concentration of the particular monoamine used in the experiment.

[2] = test system: serotonin uptake by synaptosomes from rat brain; assay: blockage of serotonin uptake by synaptosomes from rat brain; type: biochemical; conditions: Table 1, serotonin 0.1 μM
From the text: In the tables, column 1 gives the R substituent on the 3-phenylpropylamine and columns 2-4, the concentration in micrograms per ml. that blocks the uptake of a particular amine by 50 percent for the amines--norephinephrine, serotonin, and dopamine. At the head of each column is given the concentration of the particular monoamine used in the experiment.

[3] = test system: dopamine uptake by synaptosomes from rat brain; assay: blockage of dopamine uptake by synaptosomes from rat brain; type: biochemical; conditions: Table 1, dopamine 0.2 μM
From the text: as §1

[4] = test system: mice; assay: apomorphine hypothermia antagonism test; type: in vivo; conditions: for Percent Antagonism Apomorphine Pre-30 min. / inhibition in vivo at 3 mg/kg / inhibition in vivo at 10 mg/kg / inhibition in vivo at 0.3 mg/kg / inhibition in vivo at 1 mg/kg: mice; for inhibition in vivo at 3 mg/kg / inhibition in vivo at 10 mg/kg / inhibition in vivo at 0.3 mg/kg / inhibition in vivo at 1 mg/kg: Mus musculus, read-out: Percent Antagonism Apomorphine Pre-30 min.; for antagonism of apomorphine hypothermia: in words
Procedure: (§2) The apomorphine hypothermia antagonism test is carried out as follows: mice are injected with a dose of apomorphine known to reduce body temperature approximately 4° C. The compound under test is injected 1/2 hour before the injection of the apomorphine and the temperatures measured 1/2 hour after injection. The degree of antagonism is expressed as a percent reduction (as compared with controls) of the temperature decrease produced by the injection of the apomorphine. The reserpine hypothermia reversal test is carried out as follows: groups of mice are injected with reserpine and 16.5 hours later are injected intraperitoneally with graded doses of the drug, a different dose level being given to each group of mice. Temperatures are measured at 1 hour after injection of the drug under test and again the effectiveness of the drug is expressed as a percentage decrease in the hypothermia induced by the injection of reserpine as compared with the control group. In the tables which follow, Table 4 gives the results in the apomorphine antagonism and reserpine reversal hypothermia tests for the secondary amines of this invention. In the table, the first column gives the substituent attached to the oxygen atom at the 3 position of the propylamine chain; columns 2 to 4 the percent antagonism against apomorphine hypothermia at dose levels of 0.3, 1 and 3 mg./kg. and columns 5-7 the percent reversal of reserpine hypothermia at the same dose levels.

[5] = test system: mice; assay: reserpine hypothermia reversal test; type: in vivo; conditions: for reversal of reserpine hypothermia: in words
Procedure: as §2

[6] = Table 5, mice, 3 mg./kg. intraperitoneally
[7] = Table 5, mice, 10 mg./kg. intraperitoneally
[8] = Table 4, mice, 1 mg./kg. intraperitoneally
[9] = Table 4, mice, 3 mg./kg. intraperitoneally

CN(C)CCC(Oc1cccc(C(F)(F)F)c1)c1ccccc1 (stereo not drawn) [m-trifluoromethylphenyl, N,N-dimethyl 3-phenyl-3-(m-trifluoromethylphenoxy) propylamine]
Concentration in mcg./ml. that blocks 50% of amine uptake, Norepinephrine [1]: 8 µg/mL
Concentration in mcg./ml. that blocks 50% of amine uptake, Serotonin [2]: .18 µg/mL
Concentration in mcg./ml. that blocks 50% of amine uptake, Dopamine [3]: > 100 µg/mL

CN(C)CCC(Oc1ccccc1)c1ccccc1 (stereo not drawn) [phenyl]
Concentration in mcg./ml. that blocks 50% of amine uptake, Norepinephrine [1]: 1 µg/mL
Concentration in mcg./ml. that blocks 50% of amine uptake, Serotonin [2]: .6 µg/mL
Concentration in mcg./ml. that blocks 50% of amine uptake, Dopamine [3]: .3 µg/mL
Percent Antagonism Apomorphine Pre-30 min. ([4]; Table 5, 3 mg./kg.): 3%
Percent Antagonism Apomorphine Pre-30 min. ([4]; Table 5, 10 mg./kg.): 54%
Percent Antagonism Reserpine Post-60 min. [5, 6]: 20%
Percent Antagonism Reserpine Post-60 min. [5, 7]: 49%

CN(C)CCC(Oc1ccccc1C(F)(F)F)c1ccccc1 (stereo not drawn) [o-trifluoromethylphenyl, N,N-dimethyl 3-(o-trifluoromethylphenoxy)-3-phenylpropylamine]
Concentration in mcg./ml. that blocks 50% of amine uptake, Norepinephrine [1]: 70 µg/mL
Concentration in mcg./ml. that blocks 50% of amine uptake, Serotonin [2]: .16 µg/mL
Percent Antagonism Apomorphine Pre-30 min. ([4]; Table 4, 1 mg./kg.): 13%
Percent Antagonism Apomorphine Pre-30 min. ([4]; Table 4, 3 mg./kg.): 28%
Percent Antagonism Apomorphine Pre-30 min. ([4]; Table 5, 1 mg./kg.): 21%
Percent Antagonism Apomorphine Pre-30 min. ([4]; Table 5, 3 mg./kg.): 32%
Percent Antagonism Apomorphine Pre-30 min. ([4]; Table 5, 10 mg./kg.): 55%
Percent Antagonism Reserpine Post-60 min. [5, 8]: 9%
Percent Antagonism Reserpine Post-60 min. [5, 9]: 8%
Percent Antagonism Reserpine Post-60 min. [5, 7]: 10%

CN(C)CCC(Oc1ccccc1C(C)(C)C)c1ccccc1 (stereo not drawn) [o-t-butylphenyl, N,N-dimethyl 3-phenyl-3-(o-t-butylphenoxy)propylamine]
Concentration in mcg./ml. that blocks 50% of amine uptake, Norepinephrine [1]: 1.5 µg/mL
Concentration in mcg./ml. that blocks 50% of amine uptake, Serotonin [2]: 40 µg/mL
Concentration in mcg./ml. that blocks 50% of amine uptake, Dopamine [3]: > 100 µg/mL

COc1cccc(OC(CCN(C)C)c2ccccc2)c1 (stereo not drawn) [m-methoxyphenyl, N,N-dimethyl 3-phenyl-3-(m-methoxyphenoxy)propylamine]
Concentration in mcg./ml. that blocks 50% of amine uptake, Norepinephrine [1]: .2 µg/mL
Concentration in mcg./ml. that blocks 50% of amine uptake, Serotonin [2]: .08 µg/mL
Concentration in mcg./ml. that blocks 50% of amine uptake, Dopamine [3]: .5 µg/mL

C=CCc1ccccc1OC(CCN(C)C)c1ccccc1 (stereo not drawn) [o-allylphenyl, N,N-dimethyl 3-phenyl-3-(o-allylphenoxy)propylamine]
inhibition in vivo at 3 mg/kg ([4]; Table 5, 3 mg./kg.): 11%
inhibition in vivo at 10 mg/kg ([4]; Table 5, 10 mg./kg.): 67%

CN(C)CCC(Oc1ccc(F)cc1F)c1ccccc1 (stereo not drawn) [2,4-difluorophenyl, N,N-dimethyl 3-(2',4'-difluorophenoxy)-3-phenylpropylamine]
Concentration in mcg./ml. that blocks 50% of amine uptake, Norepinephrine [1]: .2 µg/mL
Concentration in mcg./ml. that blocks 50% of amine uptake, Serotonin [2]: .3 µg/mL
Concentration in mcg./ml. that blocks 50% of amine uptake, Dopamine [3]: 10 µg/mL
inhibition in vivo at 0.3 mg/kg ([4]; Table 4, 0.3 mg./kg.): 20%
inhibition in vivo at 1 mg/kg ([4]; Table 4, 1 mg./kg.): 53%
inhibition in vivo at 3 mg/kg ([4]; Table 4, 3 mg./kg.): 64%
inhibition in vivo at 1 mg/kg ([4]; Table 5, 1 mg./kg.): 26%
inhibition in vivo at 3 mg/kg ([4]; Table 5, 3 mg./kg.): 55%
inhibition in vivo at 10 mg/kg ([4]; Table 5, 10 mg./kg.): 98%

CN(C)CCC(Oc1ccccc1Br)c1ccccc1 (stereo not drawn) [o-bromophenyl, N,N-dimethyl 3-(o-bromophenoxy)-3-phenylpropylamine]
Concentration in mcg./ml. that blocks 50% of amine uptake, Serotonin [2]: .1 µg/mL
Concentration in mcg./ml. that blocks 50% of amine uptake, Dopamine [3]: 5 µg/mL
Percent Antagonism Apomorphine Pre-30 min. ([4]; Table 5, 1 mg./kg.): 19%
Percent Antagonism Apomorphine Pre-30 min. ([4]; Table 5, 3 mg./kg.): 40%
Percent Antagonism Apomorphine Pre-30 min. ([4]; Table 5, 10 mg./kg.): 47%
Percent Antagonism Reserpine Post-60 min. [5, 6]: 18%
Percent Antagonism Reserpine Post-60 min. [5, 7]: 30%

CNCCC=C1c2ccccc2CCc2ccccc21 [nortriptyline, reference compound]
antagonism of apomorphine hypothermia [4]: active
reversal of reserpine hypothermia [5]: active

CNCCC(Oc1cccc(OC)c1)c1ccccc1 (stereo not drawn) [m-anisyl, N-methyl 3-phenyl-3-(m-methoxyphenoxy)propylamine]
Percent Antagonism Apomorphine Pre-30 min. ([4]; Table 4, 0.3 mg./kg.): 15%
Percent Antagonism Apomorphine Pre-30 min. ([4]; Table 4, 1 mg./kg.): 15%
Percent Antagonism Apomorphine Pre-30 min. ([4]; Table 4, 3 mg./kg.): 71%
Percent Antagonism Apomorphine Pre-30 min. ([4]; Table 5, 1 mg./kg.): -12%
Percent Antagonism Apomorphine Pre-30 min. ([4]; Table 5, 3 mg./kg.): -7%
Percent Antagonism Apomorphine Pre-30 min. ([4]; Table 5, 10 mg./kg.): -5%
Percent Antagonism Reserpine Post-60 min. ([5]; Table 4, mice, 0.3 mg./kg. intraperitoneally): 8%
Percent Antagonism Reserpine Post-60 min. [5, 8]: 21%
Percent Antagonism Reserpine Post-60 min. [5, 9]: 21%
Percent Antagonism Reserpine Post-60 min. ([5]; Table 5, mice, 1 mg./kg. intraperitoneally): -1%
Percent Antagonism Reserpine Post-60 min. [5, 6]: 6%
Percent Antagonism Reserpine Post-60 min. [5, 7]: 5%

Cc1cccc(OC(CCN(C)C)c2ccccc2)c1 (stereo not drawn) [m-tolyl, N,N-dimethyl 3-phenyl-3-(m-tolyloxy)propylamine]
Concentration in mcg./ml. that blocks 50% of amine uptake, Norepinephrine [1]: 12 µg/mL
Concentration in mcg./ml. that blocks 50% of amine uptake, Serotonin [2]: .7 µg/mL

CN(C)CCC(Oc1ccccc1F)c1ccccc1 (stereo not drawn) [o-fluorophenyl]
inhibition in vivo at 10 mg/kg ([4]; Table 5, 10 mg./kg.): 3%

CC(C)c1ccccc1OC(CCN(C)C)c1ccccc1 (stereo not drawn) [o-isopropylphenyl]
Concentration in mcg./ml. that blocks 50% of amine uptake, Norepinephrine [1]: 1.5 µg/mL
Concentration in mcg./ml. that blocks 50% of amine uptake, Serotonin [2]: > 100 µg/mL
Concentration in mcg./ml. that blocks 50% of amine uptake, Dopamine [3]: > 100 µg/mL
inhibition in vivo at 1 mg/kg ([4]; Table 5, 1 mg./kg.): 17%
inhibition in vivo at 3 mg/kg ([4]; Table 5, 3 mg./kg.): 39%
inhibition in vivo at 10 mg/kg ([4]; Table 5, 10 mg./kg.): 65%
inhibition in vivo at 0.3 mg/kg ([4]; Table 5, .3 mg./kg.): 3%

Cc1cc(F)ccc1OC(CCN(C)C)c1ccccc1 (stereo not drawn) [4-fluoro-o-tolyl, N,N-dimethyl 3-(p-fluoro-o-tolyloxy)-3-phenylpropylamine]
Concentration in mcg./ml. that blocks 50% of amine uptake, Norepinephrine [1]: 2.5 µg/mL
Concentration in mcg./ml. that blocks 50% of amine uptake, Serotonin [2]: .6 µg/mL
Concentration in mcg./ml. that blocks 50% of amine uptake, Dopamine [3]: 40 µg/mL

COc1ccc(OC(CCN(C)C)c2ccccc2)cc1 (stereo not drawn) [p-anisyl]
inhibition in vivo at 3 mg/kg ([4]; Table 5, 3 mg./kg.): 25%
inhibition in vivo at 3 mg/kg ([5]; Mus musculus, ip, 1 h, Table 5, mice, 3 mg./kg. intraperitoneally, read-out: Percent Antagonism Reserpine Post-60 min.): 67%

CN(C)CCCN1c2ccccc2CCc2ccccc21 [imipramine, reference compound]
antagonism of apomorphine hypothermia [4]: active
reversal of reserpine hypothermia [5]: active

CN(C)CCC(Oc1ccc2ccccc2c1)c1ccccc1 (stereo not drawn) [β-naphthyl, N,N-dimethyl 3-(β-naphthyloxy)-3-phenylpropylamine]
Concentration in mcg./ml. that blocks 50% of amine uptake, Norepinephrine [1]: > 100 µg/mL
Concentration in mcg./ml. that blocks 50% of amine uptake, Serotonin [2]: 1 µg/mL
Concentration in mcg./ml. that blocks 50% of amine uptake, Dopamine [3]: > 100 µg/mL
